# According to patent US7538220B2, “Intermediates in the preparation of homocamptothecin analogs” (University of Pittsburgh - of the Commonwealth System of …, priority 1999, dated 2009):
# Values joined by “and” are separate entries in the source; they are usually repeats but may differ in a detail not shown here. Equal values may be shown once. Read-outs that look alike come from different tables or passages of the source.
# Tests used:
# [1] = Lactone ring stability in whole human blood by HPLC; conditions: for Percent Lactone in Human Blood after 3 Hours of Incubation: pH 7.4, 37° C. (Table 4)
# Method: All experiments were conducted at pH 7.4 and 37° C.
# (§1) HPLC solvents were from Fisher Scientific.
# [2] = PBS solution containing HSA; cited from earlier work
# [3] = cited from earlier work
# [4] = Lactone ring stability in mouse blood by HPLC; conditions: for Ratio of Lactone Level Mouse/Human: blood, 3 hours of incubation; for Percent Lactone in Mouse Blood after 3 Hours of Incubation: pH 7.4, 37° C.
# Method: The hydrolysis kinetics of camptothecins in the presence of different blood components were determined by a quantitative C18 reversed-phase high-performance liquid chromatography (HPLC) assay modified from methodologies described previously in the literature cited above. The preparation of whole blood and fractionated blood samples was carried out as described previously. Crystallized HSA of high purity (>97%) from Sigma Chemical (St. Louis, Mo.) was used. HSA stock solutions were prepared in PBS buffer with a final pH of 7.40±0.05. HSA concentrations were determined by UV absorbance at 278 nm using an extinction coefficient of 39,800 M^−1 cm^−1 (Porter, 1992). All other agents were reagent grade and were used without further purification. High purity water provided by a Milli-Q UV PLUS purification system (Bedford, Mass.) was utilized in all experiments. HPLC solvents were from Fisher Scientific. Human plasma and red blood cells were obtained from Central Kentucky Blood Center. […] Blood from mice was collected in heparinized tubes and stored at 5-10° C. until use.
# HPLC assays were performed either on a Waters Alliance 2690 HPLC system equipped with a temperature-controlled autosampler and Waters 474 scanning fluorescence detector. A second HPLC system was composed of a Waters HPLC system composed of 501 HPLC pumps, 717 Plus temperature-controlled autosampler and 470 scanning fluorescence detector. The HPLC assay procedures used for the homosilatecans are summarized below. Solvent A consisted of acetonitrile and Solvent B was 2% triethylammonium acetate, pH 5.5, with a flow rate of 1 ml/min. For DB-38 an isocratic elution was used: 33% Solvent A; 67% Solvent B; λex:345 nm and λem:518 nm. For DB-81 an isocratic elution was used: 56% Solvent A; 44% Solvent B; and λex:375 nm and λem:444 nm. For DB-90 an isocratic elution was used: 41% Solvent A; 59% Solvent B; λex:412 nm and λem:526 nm. For DB-91 an isocratic elution of 42% Solvent A, 58% Solvent B, and λex:392 nm and λem:562 nm.
# To determine drug stability in whole blood, whole blood was incubated at 37° C. for 30 min and pH determined. Blood pH was adjusted to 7.4+/−0.5 using either 0.1 M KOH or 0.1 M HCl. Blood samples were incubated at 37° C. for 30 min and pH remeasured to ensure that it is within the range before an individual assay was started. Aliquots of blood (2 ml each) were removed and placed in three disposable glass test tubes and the tubes were incubated at 37° C. […] Incubation at 37° C. was continued and 150 μl aliquots were removed at different time points and added to 600 μl of cold methanol (−20° C.) in an eppendorf tube. The tube was then vortexed for 10 sec and centrifuged in a table top microcentrifuge at 8000 rpm for 45 sec. The Supernatant was removed and placed in an autosampler vial and the vial quickly added to the autosampler maintained at 4° C. The sample was analyzed immediately on the HPLC set-up. The data analysis was as described for the drug in PBS only samples.
# [5] = whole human blood; cited from earlier work
# [6] = Fluorescence anisotropy titration, equilibrium binding to DMPC small unilamellar vesicles; type: physicochemical; conditions: electroneutral DMPC vesicles, PBS pH 7.4, 37° C.; K values subject to 10% uncertainty
# Method: (§2) As a consequence of the brilliant fluorescence emissions from the newly synthesized homosilatecans (a summary of the spectral parameters can be found in Table 1), the lipid bilayer adsorption isotherms summarized in FIG. 4 were relatively free from any background signal. The method of fluorescence anisotropy titration was used to construct the adsorption isotherms. The experiments were conducted at drug concentrations of 1 μM in PBS buffer (37° C.). […] Because of the potential of the lactone ring of the homosilatecans and camptothecins to hydrolyze in PBS, anisotropy values at each lipid concentration were determined immediately (approx. 1 min.) following the addition of the lactone form of each agent to the liposome suspension as to minimize any possibility of conversion to the carboxylate form. Using drug concentrations of 1 μM and long pass filters to isolate emitted light from background signal (that is, scattered exciting light and extraneous fluorescence signal resulting from the possible presence of impurities), signal levels from drugs dissolved in PBS buffer were typically 99.97% in the absence of membrane and greater than 98% in the presence of membrane. Adsorption isotherms were used to determine overall association constants for the homosilatecan, silatecan, and camptothecin drugs. Overall association constants are defined as: K=[AB]/[AF][L] where [AB] represents the concentration of bound drug, [AF] represents the concentration of free drug, and [L] represents the total lipid concentration in the vesicle suspension. This equation is valid when the concentration of free lipid is approximately equal to the concentration of total lipid (that is, the concentration of free lipid is in significant excess over the concentration of bound drug). Provided this condition is satisfied, K may be determined from the inverse of the slope of a double reciprocal plot. In such a double reciprocal plot, 1/fraction of the total drug bound is plotted vs. 1/lipid concentration, with a y-intercept value of 1 (for a system displaying binding site homogeneity). Such double-reciprocal plots for the associations of the new homosilatecans analogs (both lactone and carboxylate forms) with DMPC and DMPG small unilamellar vesicle (SUV) preparations were linear with good correlation coefficients.
# (§3) The studies summarized in Table 2 examine the structural basis of homosilatecan associations for lipid bilayers. Two types of membranes were included in these studies which were conducted under near physiological conditions of pH and temperature; these membranes include fluid-phase and electroneutral L-α-dimyristoylphosphatidyl-choline (DMPC); and fluid-phase and negatively-charged L-α-dimyristoylphosphatidylglycerol (DMPG). DMPC and DMPG have identical chain length but the charges on their head groups differ.
# (§4) In the studies of Table 2, binding isotherms were constructed using the method of fluorescence anisotropy titration as discussed above, and K values were determined from the slopes of the double-reciprocal plots. The K values are subject to 10% uncertainty. One of the most striking features of the data contained in Table 2 is the strong modulation which can be achieved through the creation of A,B,E-ring modified camptothecins (for example, the homosilatecans known as DB-38, DB-90, and DB-91) or B,E-ring modified camptothecins (for example, the homosilatecan known as DB-81). Homosilatecans containing either a sole substitution at the 7 position or dual substitution at the 7 and 10 positions have been created and found to display very high lipophilicities. Included in Table 2 are camptothecin compounds (topotecan and camptothecin). For DB-81, the lipophilicity for DMPC membranes relative to corresponding value for topotecan increases over 1,400-fold. Data for these agents were included to show the highly lipophilic nature of the new homocamptothecins relative to compounds such as topotecan and camptothecin. […]
# [7] = Fluorescence anisotropy titration, equilibrium binding to DMPG small unilamellar vesicles; type: physicochemical; conditions: negatively charged DMPG vesicles, PBS pH 7.4, 37° C.; K values subject to 10% uncertainty
# Method: as §2, §3, §4
# [8] = Lactone ring stability in PBS by HPLC; type: physicochemical; conditions: PBS pH 7.4, 3 hours, 37° C., 1 μM
# Method: FIG. 12 contrasts the improved stabilities of four novel homosilatecans of the present invention with their corresponding silatecan structure containing the α-hydroxylactone functionality. All the experiments of FIG. 12 were conducted in PBS at 37° C.
# as §1
# To determine the stabilities of homosilatecans in PBS, an aliquot of each of the homosilatecans in DMSO was added to phosphate buffered saline (PBS), pH 7.4 in a HPLC autosampler vial maintained at 37° C. in a water bath to result in final drug concentration of 1 μM. The drug-containing vial was quickly transferred to the autosampler maintained at 37° C. and aliquots analyzed at various time points. All the determinations were done in triplicate. The data was collected and analyzed using Waters Millenium software. The fraction of lactone was calculated using the peak area of lactone and carboxylate peak and using the lactone/carboxylate ratio.
# [9] = test system: MDA-MB-435 tumorigenic metastatic human breast cancer cells; experiment: Cytotoxicity, sulphorrhodamine B (SRB) assay; type: cell-based; conditions: MDA-MB-435, 72 hr exposure, SRB assay, without HSA, read-out: IC50 (w/o HSA)
# Method: Cytotoxicity measurements were conducted using MDA-MB-435 tumorigenic human breast cancer cells. The cells were exposed to a range of drug concentrations for 72 hr exposure periods and then viability was assessed using a sulphorrhodamine B (SRB) assay. The SRB measures the total protein levels in the living cells. Proteins from dead cells are lysed and removed in the washing step before TCA fixation. However, it is possible that cells in the early stage of death still have their membrane integrity and therefore retain the protein contents inside. As a result, the optical density at 490 nm can sometimes be overestimated and the cytotoxicity underestimated. […] The SRB assay is now a well regarded assay and was recently approved by NCl as a standard assay for anticancer drug screening. […] Each IC50 value represents the average of three separate trials with each dosage level studied in triplicate.
# [10] = target: T1, human serum albumin (HSA) (Homo sapiens, UniProt P02768); experiment: Binding of camptothecin lactone and carboxylate forms to human serum albumin, frequency-domain fluorescence lifetime spectroscopy
# T1 sequence (P02768 25-609): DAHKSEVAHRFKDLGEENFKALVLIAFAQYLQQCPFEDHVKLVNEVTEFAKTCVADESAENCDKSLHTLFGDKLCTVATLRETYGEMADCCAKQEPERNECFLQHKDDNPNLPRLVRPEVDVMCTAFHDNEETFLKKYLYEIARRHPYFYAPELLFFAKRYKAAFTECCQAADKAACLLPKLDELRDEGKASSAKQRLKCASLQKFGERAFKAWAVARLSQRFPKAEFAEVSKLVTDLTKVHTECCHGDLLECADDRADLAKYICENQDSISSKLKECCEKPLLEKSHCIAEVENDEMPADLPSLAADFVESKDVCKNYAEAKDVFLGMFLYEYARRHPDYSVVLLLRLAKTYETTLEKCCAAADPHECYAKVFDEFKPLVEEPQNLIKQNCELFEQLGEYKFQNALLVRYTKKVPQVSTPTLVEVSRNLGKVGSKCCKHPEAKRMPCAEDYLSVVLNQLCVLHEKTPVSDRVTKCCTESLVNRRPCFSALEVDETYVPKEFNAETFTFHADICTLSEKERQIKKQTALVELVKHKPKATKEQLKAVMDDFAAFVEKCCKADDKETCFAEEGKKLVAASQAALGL
# [11] = previously observed, Burke et al. 1993; cited from earlier work
# [12] = target: T1, human serum albumin (HSA); conditions: PBS pH 7.4; cited from earlier work
# [13] = whole human blood, 3 hours incubation, pH 7.4, 37° C., 1 μM
compound,measurement,setting,value
"CC[C@@]1(O)C(=O)OCc2c1cc1n(c2=O)Cc2cc3c(N)cccc3nc2-1 [9-Aminocamptothecin, 9-aminocamptothecin]",Percent Lactone in Human Blood after 3 Hours of Incubation,[1],0.4%
same,% Lactone,[1]; [13],approx. 0.3%
same,extent of hydrolysis,[2],> 99%
same,percentage of lactone at equilibrium,"[3]; human plasma, pH 7.4, 37° C.",0.2%
same,fraction converted to carboxylate,[3]; plasma,> 99.5%
same,Ratio of Lactone Level Mouse/Human,[4],100
same,Percent Lactone in Mouse Blood after 3 Hours of Incubation,[4],38%
CCc1c2c(nc3ccc(OC(=O)N4CCC(N5CCCCC5)CC4)cc13)-c1cc3c(c(=O)n1C2)COC(=O)[C@]3(O)CC [CPT-11],lactone level at equilibrium relative to 9-aminocamptothecin,[1]; whole human blood,approximately 40 fold
same,% Lactone,[1]; [13],approx. 21.0%
same,percentage of lactone at equilibrium,[5],21.0%
CC[C@@]1(O)C(=O)OCc2c1cc1n(c2=O)Cc2cc3ccccc3nc2-1 [Camptothecin],KDMPC overall association constant,[6],100 M⁻¹
same,KDMPG overall association constant,[7],100 M⁻¹
same,% Lactone,[8],approximately 12%
same,Percent Lactone in Human Blood after 3 Hours of Incubation,[1],7%
same,lactone level at equilibrium relative to 9-aminocamptothecin,[1]; whole human blood,approximately 10 fold
same,% Lactone,[1]; [13],approx. 6%
same,IC50,[9],12 ± 4 nM
same,HSA binding preference for the carboxylate relative to the lactone,[10],200 fold
same,"K, HSA binding of the carboxylate form",[10]; carboxylate form,1.2e+06 M⁻¹
same,"K, HSA binding of the lactone form",[10]; lactone form,≈ 5.5×10^3 M^−1
same,decrease in affinity for DMPC upon opening of the lactone ring,[11],3 fold
same,HSA binding affinity of carboxylate form relative to lactone form,[12],200 fold and > 100 fold
same,percentage of lactone at equilibrium,"[3]; human plasma, pH 7.4, 37° C.",0.2%
same,t1/2 of lactone ring opening,"[3]; human plasma, pH 7.4, 37° C.",11 min
same,t1/2 of lactone ring opening,[5],22 min
same,Ratio of Lactone Level Mouse/Human,[4],3
same,Percent Lactone in Mouse Blood after 3 Hours of Incubation,[4],20%
"CC[C@@]1(O)C(=O)OCc2c1cc1n(c2=O)Cc2c-1nc1ccc(O)cc1c2[Si](C)(C)C(C)(C)C [DB-67, reference compound]",KDMPC overall association constant,[6],"2,500 M^−1"
"CCC(O)(CC(=O)O)c1cc2n(c(=O)c1CO)Cc1c-2nc2ccc(N)cc2c1[Si](C)(C)C(C)(C)C (stereo not drawn) [DB-90 carboxylate form, carboxylate form of 7-t-butyl-dimethylsilyl-10-aminohomocamptothecin]",KDMPC overall association constant,[6],770 M⁻¹
same,KDMPG overall association constant,[7],80 M⁻¹
"CCC(O)(CC(=O)O)c1cc2n(c(=O)c1CO)Cc1c-2nc2ccc(O)cc2c1[Si](C)(C)C(C)(C)C (stereo not drawn) [DB-91 carboxylate form, ring-opened or carboxylate form of 7-t-butyldimethylsilyl-10-hydroxyhomocamptothecin]",KDMPC overall association constant,[6],700 M⁻¹
same,KDMPG overall association constant,[7],100 M⁻¹
"CCc1c2c(nc3ccc(O)cc13)-c1cc3c(c(=O)n1C2)COC(=O)[C@]3(O)CC [SN-38, 7-ethyl-10-hydroxycamptothecin]",KDMPC overall association constant,[6],300 M⁻¹
same,lactone level at equilibrium relative to 9-aminocamptothecin,[1]; whole human blood,approximately 40 fold
same,% Lactone,[1]; [13],approx. 30%
same,percentage of lactone at equilibrium,[5],19.5%
"CC[C@@]1(O)C(=O)OCc2c1cc1n(c2=O)Cc2cc3c(CN(C)C)c(O)ccc3nc2-1 [Topotecan, reference compound]",KDMPC overall association constant,[6],10 M⁻¹
same,KDMPG overall association constant,[7],50 M⁻¹
same,% Lactone,[8],approximately 12%
same,lactone level at equilibrium relative to 9-aminocamptothecin,"[1]; male, human, 1 μM, pH 7.4",20 fold
same,% Lactone,"[1]; male, human, 3 h, 1 μM, pH 7.4",approx. 15%
same,percentage of lactone at equilibrium,[5],11.9%
